Laboratory results published in patent publication US20020148006A1, “Transgenic plants with modified sterol compositions” (Asgrow Seed Company, L.L.C., priority 1996, published 2002).
Entries after “also recorded” stand apart in the source; their conditions may differ.

Assays:
Heliothis zea = assay: Sterol utilization and metabolism by Heliothis zea reared on artificial diet with sterol supplement; conditions: for Instar reached by day 20 / Growth response: sterol 200 ppm in diet; for Growth response: 20-day larvae, relative to growth on cholesterol normalized to 100%; for Utilization by H. zea / support of larval growth and development (words): test sterol as sole added dietary sterol
Procedure: Heliothis zea (corn earworm) was reared on an artificial diet treated with different sterol supplements to study the relation between sterol structure and utilization in insects. H. zea eggs were used to establish a disease-free stock colony.
The stock insects were reared using sterile procedures on a pinto bean-based diet. Moths were fed 10% sucrose. Cultures were maintained at 27±1° C., at 40±10% relative humidity on a 14:10 light-dark photoperiod and an artificial diet was used to rear the insects on different sterol supplements. The experimental diet contained agar, which is known to contain trace contamination of cholesterol, otherwise the experimental diet was sterol-free.
Sterols were solubilized in acetone. Aliquots of the solutions were added to the sterol-free diet in a mortar, the material mixed thoroughly with the diet, and the organic solvent allowed to evaporate. Sterols were supplied to the medium at 200 ppm (equivalent to 1 mg of sterol per experimental vessel containing one insect).
By day 20, H. zea larva are in the final stage of larval development (sixth instar), after which the insects may pupate. A single neonate larva was placed in an experimental culture vial and allowed to grow for 20 days. The fresh weight, length and instar stage of 20-day larva were recorded.
In some treatments, the larvae were allowed to grow for another 4 days to determine whether they could pupate properly and develop into moth forms.
These fatty alcohols may comigrate with sterols during some forms of chromatography and interfere with sterol quantitation, particularly of cholesterol. Therefore, in order to confirm the identity and amount of cholesterol in the insect an aliquot of the NSF was injected into a HPLC column and the fraction corresponding to cholesterol was examined by GC-MS.

[1] = test system: (S)-adenosyl-L-methionine: Δ^24-sterol methyl transferase (SMT); assay: Sterol specificity (substrate methylation) of SMT enzyme from 4-day corn seedlings; assay type: biochemical, Zea mays (corn); conditions: for Enzyme Activity: soluble SMT from corn seedlings, BG = background; for % Activity, relative to cycloartenol methylation: soluble SMT
Procedure: The sterol specificity of the microsome-bound and soluble SMT enzyme from 4-day corn seedlings was determined in order to elucidate the enzymatic basis for the plant sterols identified in Example 1.

[2] = substrates marked (C1), first methyl transfer
[3] = Table 11, insect tissues, RP-HPLC and GC-MS

Compound: CC[C@@H](CC[C@@H](C)[C@H]1CC[C@H]2[C@@H]3CC=C4C[C@@H](O)CC[C@]4(C)[C@H]3CC[C@]12C)C(C)C [Clionasterol]
- Instar reached by day 20 (Heliothis zea; Table 11): 6
- Growth response (Heliothis zea; Table 11): 100%
- Utilization by H. zea / support of larval growth and development (words) (Heliothis zea): supported larval growth to late-sixth instar

Compound: CC(C)=CCC[C@@H](C)[C@H]1CC[C@@]2(C)[C@@H]3CC[C@H]4[C@H](C)[C@@H](O)CC[C@@]45C[C@@]35CC[C@]12C [31-Norcycloartenol]
- Enzyme Activity [1, 2]: 18,757 dpm/min
- % Activity, relative to cycloartenol methylation ([1]; (C1), first methyl transfer): 50 (C1) %

Compound: 24-methyl cholesta-5,23-dienol [24-Methylcholesta-5,23-dienol]
- Sterol composition (as % total sterol): cholesterol (Heliothis zea; [3]): 20%
- Sterol composition (as % total sterol): ts (Heliothis zea; [3]): 80%
- Instar reached by day 20 (Heliothis zea; Table 11): 5
- Growth response (Heliothis zea; Table 11): 50%
- Utilization by H. zea / support of larval growth and development (words) (Heliothis zea): non-utilizable; also recorded: #deformities. Insects in the nonutilizable category generally weighed less than 100 mg per insect and their length ranged from 2 to 15 mm, with 6 to 12 insects alive at day 20

Compound: CCC(=CC[C@@H](C)[C@H]1CC[C@H]2[C@@H]3CC=C4CC(O)CC[C@]4(C)[C@H]3CC[C@]12C)C(C)C (some centres unmarked) [24-Ethyl cholesta-5,23-dienol]
- Sterol composition (as % total sterol): cholesterol (Heliothis zea; [3]): 14%
- Sterol composition (as % total sterol): ts (Heliothis zea; [3]): 86%
- Instar reached by day 20 (Heliothis zea; Table 11): 3
- Growth response (Heliothis zea; Table 11): 20%

Compound: CC(C)=CCC[C@@H](C)[C@H]1CC[C@H]2C3=C(CC[C@]12C)[C@@]1(C)CCCCC1CC3 (some centres unmarked) [3-Desoxyzymosterol]
- % Activity, relative to cycloartenol methylation ([1]; (C1), first methyl transfer): 0 (C1) %

Compound: C/C=C(/CCC(C)C1CCC2C3CC=C4CC(O)CCC4(C)C3CCC12C)C(C)C (centres unmarked) [Isofucosterol]
- Sterol composition (as % total sterol): ts (Heliothis zea; [3]): 8%
- Instar reached by day 20 (Heliothis zea; Table 11): 6
- Growth response (Heliothis zea; Table 11): 100%
- Utilization by H. zea / support of larval growth and development (words) (Heliothis zea): supported larval growth to late-sixth instar

Compound: C=C(CC[C@@H](C)[C@H]1CC[C@@]2(C)C3=C(CC[C@]12C)[C@@]1(C)CC[C@H](O)[C@@H](C)[C@@H]1CC3)C(C)C [Obtusifoliol]
- % Activity, relative to cycloartenol methylation ([1]; (C2), second methyl transfer): 0 (C2) %

Compound: C=C(CC[C@@H](C)[C@H]1CC[C@H]2C3=CCC4CC(O)CC[C@]4(C)[C@H]3CC[C@]12C)C(C)C (some centres unmarked) [Ergosta-7,24(28)-dienol]
- % Activity, relative to cycloartenol methylation ([1]; (C2), second methyl transfer): 0 (C2) %

Compound: C/C=C(\CC[C@@H](C)[C@H]1CC[C@H]2[C@@H]3CC=C4C[C@@H](O)CC[C@]4(C)[C@H]3CC[C@]12C)C(C)C [Fucosterol]
- Sterol composition (as % total sterol): ts (Heliothis zea; [3]): 10%
- Instar reached by day 20 (Heliothis zea; Table 11): 6
- Growth response (Heliothis zea; Table 11): 100%
- Utilization by H. zea / support of larval growth and development (words) (Heliothis zea): supported larval growth to late-sixth instar

Compound: C=C(CC[C@@H](C)[C@H]1CC[C@H]2C3=C(CC[C@]12C)[C@@]1(C)CC[C@H](O)CC1CC3)C(C)C (some centres unmarked) [Ergosta-8,24(28)-dienol]
- % Activity, relative to cycloartenol methylation ([1]; (C2), second methyl transfer): 0 (C2) %

Compound: C=C(C)C(CC)CCC(C)C1CCC2C3CC=C4CC(O)CCC4(C)C3CCC12C (centres unmarked) [Clereosterol]
- Instar reached by day 20 (Heliothis zea; Table 11): 3
- Growth response (Heliothis zea; Table 11): 20%
- Sterol composition (as % total sterol): cholesterol (Heliothis zea; in vivo): 20%
- Sterol composition (as % total sterol): ts (Heliothis zea; in vivo): 80%
- Total sterol µg/insect (Heliothis zea; in vivo): 3 µg/insect

Compound: CC(C)=CCC[C@@H](C)[C@H]1CC[C@@]2(C)[C@@H]3CC[C@H]4C[C@@H](O)CC[C@@]45C[C@@]35CC[C@]12C [24-Dehydropollinstanol]
- Enzyme Activity [1, 2]: 8,253 dpm/min
- % Activity, relative to cycloartenol methylation ([1]; (C1), first methyl transfer): 22 (C1) %
- Instar reached by day 20 (Heliothis zea; Table 11): 3
- Growth response (Heliothis zea; Table 11): 5%
- Sterol composition (as % total sterol): cholesterol (Heliothis zea; in vivo): 14%
- Sterol composition (as % total sterol): ts (Heliothis zea; in vivo): 86%
- Total sterol µg/insect (Heliothis zea; in vivo): 0.6 µg/insect

Compound: (S)-adenosyl-L-methionine [coenzyme]
- Km ([1]; same for the first and second methylation reactions, read-out: Km for the coenzyme): 5 µM

Compound: C=C(CC[C@@H](C)[C@H]1CC[C@H]2[C@@H]3CC=C4CC(O)CC[C@]4(C)[C@H]3CC[C@]12C)C(C)C (some centres unmarked) [24(28)-Methylenecholesterol, 24(28)-methylenecholesterol]
- Instar reached by day 20 (Heliothis zea; Table 11): 6
- Growth response (Heliothis zea; Table 11): 100%
- Sterol composition (as % total sterol): cholesterol (Heliothis zea; in vivo): 84%
- Sterol composition (as % total sterol): ts (Heliothis zea; in vivo): 16%
- Total sterol µg/insect (Heliothis zea; in vivo): 59 µg/insect
- Utilization by H. zea / support of larval growth and development (words) (Heliothis zea): supported larval growth to late-sixth instar

Compound: CC(C)CCC[C@@H](C)[C@H]1CC[C@@]2(C)C3=C(CC[C@]12C)[C@@]1(C)CC[C@H](O)C(C)(C)[C@@H]1CC3 [24-Dihydrolanosterol]
- Instar reached by day 20 (Heliothis zea; Table 11): 3
- Growth response (Heliothis zea; Table 11): 5%

Compound: C=C(CC[C@@H](C)[C@H]1CC[C@@]2(C)[C@@H]3CC[C@H]4[C@H](C)[C@@H](O)CC[C@@]45C[C@@]35CC[C@]12C)C(C)C [Cycloeucalenol]
- % Activity, relative to cycloartenol methylation ([1]; (C2), second methyl transfer): 0 (C2) %

Compound: CC(C)=CCC[C@@H](C)[C@H]1CC[C@@]2(C)[C@@H]3CC[C@H]4C(C)(C)[C@@H](O)CC[C@]4(C)C3=CC[C@]12C [Parkeol]
- Enzyme Activity [1, 2]: 6,002 dpm/min
- % Activity, relative to cycloartenol methylation ([1]; (C1), first methyl transfer): 16 (C1) %

Compound: CC(C)=CCCC(C)C1CC[C@@]2(C)C3=C(CCC12C)C1(C)CCC(O)CC1CC3 (stereo partly drawn) [14α-Methylzymosterol]
- Enzyme Activity [1, 2]: 3,376 dpm/min
- % Activity, relative to cycloartenol methylation ([1]; (C1), first methyl transfer): 9 (C1) %

Compound: C=C(CC[C@@H](C)[C@H]1CC[C@H]2C3=C(CC[C@]12C)[C@@]1(C)CC[C@H](O)[C@@H](C)C1CC3)C(C)C (stereo partly drawn) [4α-Methylergosta-8,24(28)-dienol]
- Enzyme Activity ([1]; substrates marked (C2), second methyl transfer): 1,500 dpm/min
- % Activity, relative to cycloartenol methylation ([1]; (C2), second methyl transfer): 4 (C2) %

Compound: 24-Methyl cholesta-5,24-dienol
- Sterol composition (as % total sterol): cholesterol (Heliothis zea; [3]): 35%
- Sterol composition (as % total sterol): ts (Heliothis zea; [3]): 65%
- Instar reached by day 20 (Heliothis zea; Table 11): 3
- Growth response (Heliothis zea; Table 11): 5%

Compound: CC(C)=CCC[C@@H](C)[C@H]1CC[C@H]2C3=C(CC[C@]12C)[C@@]1(C)CC[C@H](O)[C@@H](C)[C@@H]1CC3 [4α-Methylzymosterol]
- Enzyme Activity [1, 2]: 10,504 dpm/min
- % Activity, relative to cycloartenol methylation ([1]; (C1), first methyl transfer): 28 (C1) %

Compound: CCC(/C=C/C(C)C1CCC2C3CC=C4CC(O)CCC4(C)C3CCC12C)C(C)C (centres unmarked) [Stigmasterol, stigmasterol]
- Sterol composition (as % total sterol): ts (Heliothis zea; [3]): 15%
- Instar reached by day 20 (Heliothis zea; Table 11): 6
- Growth response (Heliothis zea; Table 11): 100%
- Utilization by H. zea / support of larval growth and development (words) (Heliothis zea): supported larval growth to late-sixth instar

Compound: 24-methyl cholesta-5,25(27)-dienol
- Utilization by H. zea / support of larval growth and development (words) (Heliothis zea): non-utilizable

Compound: 24-Ethyl cholesta-5,24-dienol
- Instar reached by day 20 (Heliothis zea; Table 11): 3
- Growth response (Heliothis zea; Table 11): 10%

Compound: C=C(CC[C@@H](C)[C@H]1CC[C@H]2[C@@H]3CC=C4C[C@@H](O)CC[C@]4(C)[C@H]3CC[C@]12C)C(C)C [Ergosta-5,24(28)-dienol]
- % Activity, relative to cycloartenol methylation ([1]; (C2), second methyl transfer): 0 (C2) %
